According to PMC8391312 (Biomedicines, 2021):

Tested on: Cav1.2/1.3 channels
Type: cell-based, rat

## [Cl][Cd][Cl] [Cd^2+, CdCl2]
  block of current amplitude: 98 ± 0.8%
